Data: the kinase profiling compilation of Christmann-Franck et al. (2016)

Key:
Assay in all cases: KINOMEscan competition binding
Conditions in all cases: compound 10.0 µM
[1] = target: STK24 (human) (UniProt Q9Y6E0)
[2] = target: CAMKK2 (human) (UniProt Q96RR4)
[3] = target: STK17A (human) (UniProt Q9UEE5)
[4] = target: TSSK1B (human) (UniProt Q9BXA7)
[5] = target: FLT1 (human) (UniProt P17948)
[6] = target: DDR1 (human) (UniProt Q08345)
[7] = target: MAPK3 (human) (UniProt P27361)
[8] = target: CDKL2 (human) (UniProt Q92772)
[9] = target: KDR (human) (UniProt P35968)
[10] = target: STK38 (human) (UniProt Q15208)
[11] = target: AXL (human) (UniProt P30530)
[12] = tested on: EGFR (human), P00533 [A750P; 747-749 del]
[13] = tested on: FLT3 (human), P36888 [D835Y]
[14] = target: NTRK3 (human) (UniProt Q16288)
[15] = target: RPS6KA1 KD1 (human) (UniProt Q15418)
[16] = target: PRKD1 (human) (UniProt Q15139)
[17] = target: SNRK (human) (UniProt Q9NRH2)
[18] = target: TNIK (human) (UniProt Q9UKE5)
[19] = target: ULK1 (human) (UniProt O75385)
[20] = target: CDK5 (human) (UniProt Q00535)
[21] = target: SRPK3 (human) (UniProt Q9UPE1)
[22] = target: EPHB3 (human) (UniProt P54753)
[23] = target: ROS1 (human) (UniProt P08922)
[24] = tested on: KIT (human), P10721 [A829P]
[25] = target: CDK3 (human) (UniProt Q00526)
[26] = target: TAOK3 (human) (UniProt Q9H2K8)
[27] = target: CSNK1E (human) (UniProt P49674)
[28] = target: MTOR (human) (UniProt P42345)
[29] = target: RAF1 (human) (UniProt P04049)
[30] = target: YES1 (human) (UniProt P07947)
[31] = target: CDK19 (human) (UniProt Q9BWU1)
[32] = target: MYO3A (human) (UniProt Q8NEV4)
[33] = target: BLK (human) (UniProt P51451)
[34] = target: PIK3CG (human) (UniProt P48736)
[35] = target: PTK6 (human) (UniProt Q13882)
[36] = target: PIP4K2C (human) (UniProt Q8TBX8)
[37] = target: LIMK2 (human) (UniProt P53671)
[38] = target: INSR (human) (UniProt P06213)
[39] = target: DAPK1 (human) (UniProt P53355)
[40] = target: KIT (human) (UniProt P10721)

TAOK3 (human), sequence (Q9H2K8 whole entry, looked up): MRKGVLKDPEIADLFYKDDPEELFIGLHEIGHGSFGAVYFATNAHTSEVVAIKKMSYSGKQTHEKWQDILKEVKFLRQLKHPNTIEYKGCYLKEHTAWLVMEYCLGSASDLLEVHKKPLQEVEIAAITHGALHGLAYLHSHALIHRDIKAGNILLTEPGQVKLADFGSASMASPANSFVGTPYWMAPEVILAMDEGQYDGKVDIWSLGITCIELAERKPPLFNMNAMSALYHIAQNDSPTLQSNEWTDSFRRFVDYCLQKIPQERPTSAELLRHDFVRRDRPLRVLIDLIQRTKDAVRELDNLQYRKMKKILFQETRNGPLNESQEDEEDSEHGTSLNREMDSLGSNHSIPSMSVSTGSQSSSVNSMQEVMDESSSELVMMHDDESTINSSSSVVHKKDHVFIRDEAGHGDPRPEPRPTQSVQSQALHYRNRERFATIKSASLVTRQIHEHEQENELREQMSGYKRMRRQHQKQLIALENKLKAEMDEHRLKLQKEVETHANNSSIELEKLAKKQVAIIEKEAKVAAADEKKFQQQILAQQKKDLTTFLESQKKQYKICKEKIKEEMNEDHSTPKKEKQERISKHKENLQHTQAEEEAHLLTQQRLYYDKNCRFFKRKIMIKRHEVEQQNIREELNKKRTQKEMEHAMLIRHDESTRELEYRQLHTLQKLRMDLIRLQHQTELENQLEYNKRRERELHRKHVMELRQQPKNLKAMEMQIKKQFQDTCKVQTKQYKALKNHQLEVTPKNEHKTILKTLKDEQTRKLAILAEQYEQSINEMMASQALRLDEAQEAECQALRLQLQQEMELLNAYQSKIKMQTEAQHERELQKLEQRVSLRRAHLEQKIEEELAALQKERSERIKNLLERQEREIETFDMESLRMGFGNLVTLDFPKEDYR
PIP4K2C (human), sequence (Q8TBX8 whole entry, looked up): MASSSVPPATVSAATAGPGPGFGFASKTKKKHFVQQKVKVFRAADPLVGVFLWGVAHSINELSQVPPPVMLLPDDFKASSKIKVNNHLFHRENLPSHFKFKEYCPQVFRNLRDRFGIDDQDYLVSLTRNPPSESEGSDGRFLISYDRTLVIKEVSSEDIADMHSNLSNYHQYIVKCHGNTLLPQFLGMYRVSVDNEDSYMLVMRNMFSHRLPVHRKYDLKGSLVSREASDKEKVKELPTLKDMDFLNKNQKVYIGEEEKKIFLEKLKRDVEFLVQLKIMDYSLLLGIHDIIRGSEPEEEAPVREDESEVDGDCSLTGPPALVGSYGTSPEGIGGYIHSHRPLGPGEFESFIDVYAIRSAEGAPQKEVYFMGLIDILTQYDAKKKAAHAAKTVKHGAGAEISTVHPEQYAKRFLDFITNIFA
CSNK1E (human), sequence (P49674 whole entry, looked up): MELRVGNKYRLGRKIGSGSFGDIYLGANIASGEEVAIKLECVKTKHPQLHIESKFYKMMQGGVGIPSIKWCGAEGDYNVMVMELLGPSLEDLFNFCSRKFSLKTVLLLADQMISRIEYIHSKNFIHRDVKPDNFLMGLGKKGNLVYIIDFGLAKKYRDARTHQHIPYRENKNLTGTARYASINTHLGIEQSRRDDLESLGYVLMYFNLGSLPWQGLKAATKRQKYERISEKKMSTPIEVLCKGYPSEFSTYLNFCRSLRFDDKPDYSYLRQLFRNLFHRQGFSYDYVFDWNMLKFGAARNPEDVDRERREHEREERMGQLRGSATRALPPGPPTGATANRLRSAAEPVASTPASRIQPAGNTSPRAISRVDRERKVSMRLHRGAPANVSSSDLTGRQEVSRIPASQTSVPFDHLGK
CDKL2 (human), sequence (Q92772 whole entry, looked up): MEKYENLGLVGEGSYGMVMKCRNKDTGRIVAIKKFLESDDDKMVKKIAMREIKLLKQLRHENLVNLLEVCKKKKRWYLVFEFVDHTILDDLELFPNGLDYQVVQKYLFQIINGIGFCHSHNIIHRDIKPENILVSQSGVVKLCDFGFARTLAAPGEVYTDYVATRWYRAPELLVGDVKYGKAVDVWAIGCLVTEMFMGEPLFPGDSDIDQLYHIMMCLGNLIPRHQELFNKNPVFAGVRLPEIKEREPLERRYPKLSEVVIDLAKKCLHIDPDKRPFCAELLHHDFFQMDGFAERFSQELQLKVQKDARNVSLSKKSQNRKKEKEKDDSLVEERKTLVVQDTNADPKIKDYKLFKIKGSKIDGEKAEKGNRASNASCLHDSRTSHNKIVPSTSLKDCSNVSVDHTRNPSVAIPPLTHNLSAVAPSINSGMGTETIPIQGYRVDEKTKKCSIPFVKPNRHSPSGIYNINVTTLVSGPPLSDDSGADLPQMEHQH
LIMK2 (human), sequence (P53671 whole entry, looked up): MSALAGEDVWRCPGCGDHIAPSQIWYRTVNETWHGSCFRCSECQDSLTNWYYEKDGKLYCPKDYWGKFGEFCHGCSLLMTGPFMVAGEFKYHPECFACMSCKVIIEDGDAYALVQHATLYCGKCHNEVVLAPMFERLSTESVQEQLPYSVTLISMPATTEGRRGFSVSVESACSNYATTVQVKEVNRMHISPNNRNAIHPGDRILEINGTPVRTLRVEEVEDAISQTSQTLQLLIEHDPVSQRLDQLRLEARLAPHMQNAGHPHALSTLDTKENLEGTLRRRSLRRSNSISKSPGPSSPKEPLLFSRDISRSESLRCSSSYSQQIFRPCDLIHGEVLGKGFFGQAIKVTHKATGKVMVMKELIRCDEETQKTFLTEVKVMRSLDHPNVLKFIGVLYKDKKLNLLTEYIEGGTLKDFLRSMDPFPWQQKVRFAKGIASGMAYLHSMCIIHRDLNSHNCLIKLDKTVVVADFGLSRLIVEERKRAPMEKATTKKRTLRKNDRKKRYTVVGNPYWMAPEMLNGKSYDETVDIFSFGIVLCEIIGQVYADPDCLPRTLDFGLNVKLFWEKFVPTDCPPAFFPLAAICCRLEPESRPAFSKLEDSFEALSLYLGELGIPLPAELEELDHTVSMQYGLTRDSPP
RAF1 (human), sequence (P04049 whole entry, looked up): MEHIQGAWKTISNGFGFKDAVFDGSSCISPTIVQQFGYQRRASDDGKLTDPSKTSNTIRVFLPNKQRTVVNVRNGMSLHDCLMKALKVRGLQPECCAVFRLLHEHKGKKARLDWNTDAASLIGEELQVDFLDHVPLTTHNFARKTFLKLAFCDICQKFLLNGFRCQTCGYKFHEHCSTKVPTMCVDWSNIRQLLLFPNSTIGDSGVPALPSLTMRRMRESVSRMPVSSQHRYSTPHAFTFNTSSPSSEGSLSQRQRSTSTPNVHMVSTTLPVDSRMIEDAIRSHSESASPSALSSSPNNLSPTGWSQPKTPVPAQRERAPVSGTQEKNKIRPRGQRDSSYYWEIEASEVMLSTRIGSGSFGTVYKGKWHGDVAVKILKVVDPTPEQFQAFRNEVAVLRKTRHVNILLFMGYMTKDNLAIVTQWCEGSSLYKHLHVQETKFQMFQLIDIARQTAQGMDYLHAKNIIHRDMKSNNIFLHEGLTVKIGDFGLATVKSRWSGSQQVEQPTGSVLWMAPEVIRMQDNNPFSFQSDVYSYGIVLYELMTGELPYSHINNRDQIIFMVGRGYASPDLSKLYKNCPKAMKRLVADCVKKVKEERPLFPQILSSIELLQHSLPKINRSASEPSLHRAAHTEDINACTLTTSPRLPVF
AXL (human), sequence (P30530 whole entry, looked up): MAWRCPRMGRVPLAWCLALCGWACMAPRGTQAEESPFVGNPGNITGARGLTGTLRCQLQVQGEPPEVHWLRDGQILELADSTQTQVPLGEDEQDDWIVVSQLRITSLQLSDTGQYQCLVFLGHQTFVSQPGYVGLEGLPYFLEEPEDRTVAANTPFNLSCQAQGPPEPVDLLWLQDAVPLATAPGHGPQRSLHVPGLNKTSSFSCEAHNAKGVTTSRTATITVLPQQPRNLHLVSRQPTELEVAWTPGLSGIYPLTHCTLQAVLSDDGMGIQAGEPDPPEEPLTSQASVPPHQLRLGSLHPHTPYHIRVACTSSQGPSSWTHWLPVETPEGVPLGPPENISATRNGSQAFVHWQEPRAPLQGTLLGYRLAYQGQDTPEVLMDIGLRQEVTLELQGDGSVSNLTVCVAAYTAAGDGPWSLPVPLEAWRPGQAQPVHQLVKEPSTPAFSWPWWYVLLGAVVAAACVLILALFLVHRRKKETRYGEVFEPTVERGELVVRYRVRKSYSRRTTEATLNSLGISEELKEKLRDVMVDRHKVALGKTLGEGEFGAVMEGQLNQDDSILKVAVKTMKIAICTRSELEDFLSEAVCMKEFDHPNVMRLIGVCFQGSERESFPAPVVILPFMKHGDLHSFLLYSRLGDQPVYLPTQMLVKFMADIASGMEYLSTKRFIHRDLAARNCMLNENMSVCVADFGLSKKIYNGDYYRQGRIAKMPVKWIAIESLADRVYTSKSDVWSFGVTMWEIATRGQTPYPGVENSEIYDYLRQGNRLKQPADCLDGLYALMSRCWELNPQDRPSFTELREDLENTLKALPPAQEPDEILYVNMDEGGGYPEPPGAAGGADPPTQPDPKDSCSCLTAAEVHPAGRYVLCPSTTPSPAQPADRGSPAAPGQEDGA
PTK6 (human), sequence (Q13882 whole entry, looked up): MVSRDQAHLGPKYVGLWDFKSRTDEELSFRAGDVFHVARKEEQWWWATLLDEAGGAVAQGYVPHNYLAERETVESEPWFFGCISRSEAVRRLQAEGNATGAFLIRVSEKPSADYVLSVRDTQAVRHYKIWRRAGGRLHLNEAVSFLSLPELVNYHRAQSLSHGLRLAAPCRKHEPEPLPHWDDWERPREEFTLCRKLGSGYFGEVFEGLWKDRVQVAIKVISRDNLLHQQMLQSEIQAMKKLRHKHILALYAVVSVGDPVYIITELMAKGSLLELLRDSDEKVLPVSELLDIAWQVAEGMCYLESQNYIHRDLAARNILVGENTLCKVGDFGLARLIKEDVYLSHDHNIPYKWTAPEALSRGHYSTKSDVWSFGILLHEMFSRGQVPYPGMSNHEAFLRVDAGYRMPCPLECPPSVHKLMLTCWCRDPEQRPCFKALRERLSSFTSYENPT

| SMILES | kinase still bound, per cent of control [1] [%] | kinase still bound, per cent of control [2] [%] | kinase still bound, per cent of control [3] [%] | kinase still bound, per cent of control [4] [%] | kinase still bound, per cent of control [5] [%] | kinase still bound, per cent of control [6] [%] | kinase still bound, per cent of control [7] [%] | kinase still bound, per cent of control [8] [%] | kinase still bound, per cent of control [9] [%] | kinase still bound, per cent of control [10] [%] | kinase still bound, per cent of control [11] [%] | kinase still bound, per cent of control [12] [%] | kinase still bound, per cent of control [13] [%] | kinase still bound, per cent of control [14] [%] | kinase still bound, per cent of control [15] [%] | kinase still bound, per cent of control [16] [%] | kinase still bound, per cent of control [17] [%] | kinase still bound, per cent of control [18] [%] | kinase still bound, per cent of control [19] [%] | kinase still bound, per cent of control [21] [%] | other results |
| --- | --- | --- | --- | --- | --- | --- | --- | --- | --- | --- | --- | --- | --- | --- | --- | --- | --- | --- | --- | --- | --- |
| COc1cc2ncnc(Nc3cccc(Cl)c3)c2cc1OC | 87 | 72 | 19 | 100 | 75 | 1.9 | 88 | 84 | 31 | 61 | 19 | 1.4 | 11 | 87 | 93 | 89 | 71 | 26 | 75 | 93 | kinase still bound, per cent of control [20]: 100%; kinase still bound, per cent of control [22]: 97%; kinase still bound, per cent of control [23]: 61%; kinase still bound, per cent of control [24]: 27%; kinase still bound, per cent of control [25]: 100%; kinase still bound, per cent of control [26]: 78%; kinase still bound, per cent of control [27]: 32%; kinase still bound, per cent of control [28]: 83%; kinase still bound, per cent of control [29]: 84%; kinase still bound, per cent of control [30]: 38%; kinase still bound, per cent of control [31]: 93%; kinase still bound, per cent of control [32]: 83%; kinase still bound, per cent of control [33]: 7.1%; kinase still bound, per cent of control [34]: 44%; kinase still bound, per cent of control [35]: 58%; kinase still bound, per cent of control [36]: 31%; kinase still bound, per cent of control [37]: 100%; kinase still bound, per cent of control [38]: 62%; kinase still bound, per cent of control [39]: 53% |
| COc1cc2c(Nc3ccc(NC(=O)c4ccccc4)cc3)ncnc2cc1OCCCN1CCOCC1 | 46 | 81 | 100 | 100 | 56 | 36 | 100 | 12 | 26 | 92 | 1.8 | 22 | 44 | 98 | 72 | 99 | 81 | 51 | 48 | 100 | kinase still bound, per cent of control [22]: 100%; kinase still bound, per cent of control [23]: 41%; kinase still bound, per cent of control [24]: 59%; kinase still bound, per cent of control [25]: 100%; kinase still bound, per cent of control [26]: 95%; kinase still bound, per cent of control [27]: 80%; kinase still bound, per cent of control [28]: 70%; kinase still bound, per cent of control [29]: 100%; kinase still bound, per cent of control [30]: 16%; kinase still bound, per cent of control [31]: 100%; kinase still bound, per cent of control [32]: 79%; kinase still bound, per cent of control [33]: 0.5%; kinase still bound, per cent of control [34]: 100%; kinase still bound, per cent of control [35]: 0.8%; kinase still bound, per cent of control [36]: 53%; kinase still bound, per cent of control [37]: 78%; kinase still bound, per cent of control [38]: 77%; kinase still bound, per cent of control [39]: 84%; kinase still bound, per cent of control [40]: 0% |
